Laboratory results from patent US20140303251A1, “Methods Of Treating Acute Kidney Injury With Retinoic Acid” (Beth Israel Deaconess Medical Center, Inc., priority 2011, published 2014).

Experiments:
[1] = tested on: primary cultures of renal proximal tubule epithelial cells (RPTECs); assay: in vitro IRI model: primary RPTEC cultures, mineral oil overlay induced hypoxia followed by reperfusion, qPCR; assay type: cell-based, mice; settings: for CCL20 induction: Nur77 knockout RPTECs; for Nur77 levels (induction after ischemia-reperfusion): RPTECs, hypoxia by mineral oil overlay then reperfusion; for Nur77 levels (induction after ischemia-reperfusion) / Induction of Nr4a family members (Nor-1, Nurr1): vs vehicle; for Induction of Nr4a family members (Nor-1, Nurr1): both wild type and Nur77 knockout RPTEC cultures
Procedure: (§1) Kidney tissues were snap frozen and stored at −80 deg C. until processing. The tissues were homogenized and total RNA was prepared using RNeasy kit (Qiagen). DNA contamination was eliminated by DNase digestion. The reverse transcribed cDNA was subjected to qPCR using a Sybr green based detection system (SA Bioscience). Relative levels of mRNA was normalized to GAPDH levels and quantified based on 2e-deltaCT method.
Kidneys from 4-5 weeks old mice were harvested after perfusion with sterile PBS. Cortex was separated and minced into ˜1 mm3 pieces and digested using collagenase and soybean trypsin inhibitor for 30 min and 37 degC. The digested mix was spun down and filtered through 200 uM filter followed by a 70 uM filter. The tubules that are retained on the top of the 70 uM filter were collected and cultured in Renal life cell growth medium (Lifeline cell technology) on collagen coated plates. After 7 days of culturing, the cells were used for experiments. The purity of the culture was ascertained by staining for cytokeratin (Anti-cytokeratin antibody: Sigma). To induce ischemia reperfusion injury, confluent monolayer of RPTECs was overlayed with mineral oil for 1 h, followed by reperfusion with complete medium.
Retinoic acid can antagonize Nur77 function by inhibiting its transcriptional induction, DNA binding and nuclear export^17,18. RXRs heterodimerize with Nur77 in response to cell death stimuli, promoting nuclear export and causing Bcl-2 dependent cytochrome c release and apoptosis. Ligand bound RXR inhibits Nur77 function either by retaining it in the nucleus or by inhibiting its transcription by an AP-1 dependent mechanism^18. Since Nur77 deficient mice were protected from renal IRI, whether pharmacologic antagonism of Nur77 by retinoic acid could be used to protect kidneys from acute injury was assessed. To determine whether retinoids could regulate Nur77-dependent signaling in renal epithelia, primary cultures of renal proximal tubule epithelial cells (RPTECs) were generated from either wild type or Nur77 knockout mice. RPTECs were treated with either vehicle or 9-cis-retinoic acid, and subjected to mineral oil overlay induced hypoxia, followed by reperfusion.

[2] = tested on: renal IRI; assay: renal ischemia reperfusion injury (IRI) in mice, 9-cis retinoic acid given 4 h prior; assay type: in vivo; settings: for BUN (serum blood urea nitrogen) / serum creatinine / tubular / renal injury score / apoptotic cells in kidney (TUNEL) / neutrophil infiltration in kidney / CXCL2 gene expression level in kidney: 10 mg/kg 4 h prior to IRI; for BUN (serum blood urea nitrogen) / serum creatinine: 24 h after IRI; for BUN (serum blood urea nitrogen) / serum creatinine / tubular / renal injury score / apoptotic cells in kidney (TUNEL) / neutrophil infiltration in kidney / CXCL2 gene expression level in kidney / Nor-1 and Nurr-1 levels in kidney / Nur77 gene expression level in kidney: vs vehicle; for BUN (serum blood urea nitrogen): P<0.0001; for serum creatinine: P<0.002; for apoptotic cells in kidney (TUNEL) / neutrophil infiltration in kidney: P<0.001; for CXCL2 gene expression level in kidney: P<0.02; for Nor-1 and Nurr-1 levels in kidney / Nur77 gene expression level in kidney: 10 mg/kg body weight 4 h prior to IRI, 24 hours after injury, qPCR; for localization pattern of Nur77: 24 h post IRI, immunochemistry
Procedure: Male mice of age 8-10 weeks were used in this study. Animals were anesthetized using xylazine and ketamine and kept on 37° C. warming pads. The kidneys were exposed by flank incision and both kidney pedicles were clamped for 45 minutes using non-traumatic microaneurysm clamps (Roboz, Rockville, Md.). Reperfusion was confirmed visually and the incision was sutured. Body temperature of the animals was maintained at 37° C. throughout the procedure.
9-cis retinoic acid in DMSO was administered to animals at a dose of 10 mg/kg body weight, 4 h prior to the IRI procedure. The final concentration of DMSO was 25% (v/v). Control animals received 25% (v/v) DMSO.
Kidneys from animals subjected to IRI were harvested. Transverse sections of the kidneys were either snap frozen in OCT or fixed in 10% formalin and processed for paraffin embedded sections. Renal morphology was assessed by PAS staining (Periodic acid-Schiff reagent). Neutrophil infiltration was assessed by staining formalin fixed paraffin embedded (FFPE) sections with anti-Ly6G (BD). Infiltrating neutrophils were counted in 3 independent HPFs (400×) per section per animal and represented as mean±SEM. Nur77 staining was carried out on FFPE sections after antigen retrievel using anti-mouse Nur77 antibody (Ebioscience). Endogenous mouse Ig was blocked using M.O.M kit from vector labs.
Kidney cell apoptosis was assessed by TUNEL staining using ApopTag® Peroxidase In Situ Apoptosis Detection Kit (Millipore). The apoptotic index was calculated as percentage of dead cells in 3 independent 400×HPF per section per animal by, counting both stained nuclei and total nuclei.
Serum plasma was collected 24 h after ischemia reperfusion and stored at −80 deg C. until further processing. Serum creatinine was quantified using QuantiChrom™ Creatinine Assay Kit (Bioassays systems). Serum blood urea nitrogen levels were measured using Infinity Urea liquid stable reagent (Thermo fisher).
as §1

[3] = Nur77+/+ (wild type) RPTECs, listed as 9-cis-RA

SMILES: CC1=C(/C=C/C(C)=C\C=C\C(C)=C\C(=O)O)C(C)(C)CCC1 [9-cis-retinoic acid]
- CCL20 levels ([1]; Nur77+/+ (wild type) RPTECs): very substantially reduced
- Induction of CXCL2 ([1]; Nur77+/+ (wild type) RPTECs): significantly attenuated
- CCL20 levels [1, 3]: reduced
- Induction of CXCL2 [1, 3]: reduced
- CCL20 induction [1]: no further effect
- CCL20 induction ([1]; listed as 9-cis-RA): did not substantially reduce the expression level further
- Induction of CXCL2 ([1]; RPTECs from Nur77 knockout kidneys): no further inhibitory effect
- Induction of CXCL2 ([1]; RPTECs from Nur77 knockout kidneys, listed as 9-cis-RA): did not substantially reduce the expression level further
- Nur77 levels (induction after ischemia-reperfusion) [1]: reduced by about half
- Nur77 levels (induction after ischemia-reperfusion) ([1]; listed as 9-cis-RA): attenuated the induction
- Induction of Nr4a family members (Nor-1, Nurr1) [1]: inhibited
- Induction of Nr4a family members (Nor-1, Nurr1) ([1]; listed as 9-cis-RA): attenuated the induction
- BUN (serum blood urea nitrogen) [2]: reduced
- BUN (serum blood urea nitrogen) ([2]; listed as 9-cis-RA): significantly lower
- serum creatinine [2]: reduced
- serum creatinine ([2]; listed as 9-cis-RA): significantly lower
- tubular / renal injury score [2]: improved
- apoptotic cells in kidney (TUNEL) [2]: significantly less
- neutrophil infiltration in kidney [2]: much less
- apoptotic cells in kidney (TUNEL) ([2]; listed as 9-cis-RA): fewer apoptotic cells
- neutrophil infiltration in kidney ([2]; listed as 9-cis-RA): fewer
- CXCL2 gene expression level in kidney [2]: Reduced
- CXCL2 gene expression level in kidney ([2]; listed as 9-cis-RA): greatly diminished
- tubular / renal injury score ([2]; listed as 9-cis-RA): less injured
- Nor-1 and Nurr-1 levels in kidney [2]: dramatically lower induction
- Nur77 gene expression level in kidney [2]: dramatically lower induction
- Nor-1 and Nurr-1 levels in kidney ([2]; listed as 9-cis-RA): reduced
- Nur77 gene expression level in kidney ([2]; listed as 9-cis-RA): significantly diminished
- localization pattern of Nur77 [2]: cytoplasmic
- localization pattern of Nur77 ([2]; listed as 9 cis-RA): unaltered
- overall level of Nur77 protein expression in kidney (immunochemistry) ([2]; mice that received 9-cis-retinoic acid, after renal IRI): dramatically reduced
- transcript level of HIF-1 alpha ([2]; treatment prior to the induction of IRI): unchanged
